{
  "source": "patent US20230293526A1",
  "about": "“METHOD FOR TREATING CANCER WITH A REVERSE TRANSCRIPTASE INHIBITOR” (PrimeFour Therapeutics, Inc., priority 2020, published 2023)",
  "assay_in_all_cases": "Cell proliferation CellTiterGlo Ex.2",
  "assay_type_in_all_cases": "cell-based",
  "key": {"NCI-N87": {"system": "NCI-N87", "conditions": "Homo sapiens; NCI-N87 (Stomach), 72 h", "how_it_was_run": "(§1)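 Cells were seeded, incubated overnight at 37 °C, then dosed at 10, 3, 1, 0.3, 0.1, 0.03, 0.01 and 0.003 μM for 72 h (5% or 10% CO2). CellTiterGlo luminescence gave percent viability relative to 0.10% DMSO (high) and 10 μM staurosporine (low) controls.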"}, "COV434": {"system": "COV434", "conditions": "COV434 (Ovary), 72 h", "how_it_was_run": "as §1"}, "DLD-1": {"system": "DLD-1", "conditions": "Homo sapiens; DLD-1 (Colon), 72 h", "how_it_was_run": "as §1"}, "A2058": {"system": "A2058", "conditions": "Homo sapiens; A2058 (Skin), 72 h", "how_it_was_run": "as §1"}, "RKO": {"system": "RKO", "conditions": "Homo sapiens; RKO (Colon), 72 h", "how_it_was_run": "as §1"}, "NCI-H2110": {"system": "NCI-H2110", "conditions": "NCI-H2110 (Lung), 72 h", "how_it_was_run": "as §1"}, "T98G": {"system": "T98G", "conditions": "Homo sapiens; T98G (Brain), 72 h", "how_it_was_run": "as §1"}, "PC-9": {"system": "PC-9", "conditions": "Homo sapiens; PC-9 (Lung), 72 h", "how_it_was_run": "as §1"}, "P31/FUJ": {"system": "P31/FUJ", "conditions": "Homo sapiens; P31/FUJ (Blood), 72 h", "how_it_was_run": "as §1"}, "Ishikawa": {"system": "Ishikawa", "conditions": "Homo sapiens; Ishikawa (Endometrium), 72 h", "how_it_was_run": "as §1"}, "NCI-H1703": {"system": "NCI-H1703", "conditions": "Homo sapiens; NCI-H1703 (Lung), 72 h", "how_it_was_run": "as §1"}, "HT-1080": {"system": "HT-1080", "conditions": "Homo sapiens; HT-1080 (Fibrosarcoma), 72 h", "how_it_was_run": "as §1"}, "PC3": {"system": "PC3", "conditions": "Homo sapiens, PC-3; PC3 (Prostate), 72 h", "how_it_was_run": "as §1"}, "SCH": {"system": "SCH", "conditions": "SCH (Stomach), 72 h", "how_it_was_run": "as §1"}, "HCC38": {"system": "HCC38", "conditions": "Homo sapiens; HCC38 (Breast), 72 h", "how_it_was_run": "as §1"}, "RPMI 8226": {"system": "RPMI 8226", "conditions": "Homo sapiens; RPMI 8226 (Blood), 72 h", "how_it_was_run": "as §1"}, "A498": {"system": "A498", "conditions": "Homo sapiens; A498 (Kidney), 72 h", "how_it_was_run": "as §1"}, "SK-N-FI": {"system": "SK-N-FI", "conditions": "Homo sapiens; SK-N-FI (Brain), 72 h", "how_it_was_run": "as §1"}, "SK-LU-1": {"system": "SK-LU-1", "conditions": "Homo sapiens; SK-LU-1 (Lung), 72 h", "how_it_was_run": "as §1"}, "LP-1": {"system": "LP-1", "conditions": "Homo sapiens; LP-1 (Blood), 72 h", "how_it_was_run": "as §1"}, "SK-N-MC": {"system": "SK-N-MC", "conditions": "Homo sapiens; SK-N-MC (Brain), 72 h", "how_it_was_run": "as §1"}, "BxPC-3": {"system": "BxPC-3", "conditions": "Homo sapiens; BxPC-3 (Pancreas), 72 h", "how_it_was_run": "as §1"}, "Caki-2": {"system": "Caki-2", "conditions": "Homo sapiens; Caki-2 (Kidney), 72 h", "how_it_was_run": "as §1"}, "Hutu 80": {"system": "Hutu 80", "conditions": "Homo sapiens, HuTu80; Hutu 80 (Duodenum), 72 h", "how_it_was_run": "as §1"}, "MKN-1": {"system": "MKN-1", "conditions": "Homo sapiens; MKN-1 (Stomach), 72 h", "how_it_was_run": "as §1"}, "HL-60": {"system": "HL-60", "conditions": "Homo sapiens; HL-60 (Blood), 72 h", "how_it_was_run": "as §1"}, "OCI-AML3": {"system": "OCI-AML3", "conditions": "Homo sapiens, OCI-AML-3; OCI-AML3 (Blood), 72 h", "how_it_was_run": "as §1"}, "EFM-19": {"system": "EFM-19", "conditions": "Homo sapiens; EFM-19 (Breast), 72 h", "how_it_was_run": "as §1"}, "AsPC-1": {"system": "AsPC-1", "conditions": "Homo sapiens, ASPC1; AsPC-1 (Pancreas), 72 h", "how_it_was_run": "as §1"}, "MKN-45": {"system": "MKN-45", "conditions": "Homo sapiens; MKN-45 (Stomach), 72 h", "how_it_was_run": "as §1"}, "HCT116": {"system": "HCT116", "conditions": "Homo sapiens, HCT-116; HCT116 (Colon), 72 h", "how_it_was_run": "as §1"}, "A2780": {"system": "A2780", "conditions": "Homo sapiens; A2780 (Ovary), 72 h", "how_it_was_run": "as §1"}, "U-266": {"system": "U-266", "conditions": "Homo sapiens; U-266 (Blood), 72 h", "how_it_was_run": "as §1"}, "NCI-H2009": {"system": "NCI-H2009", "conditions": "Homo sapiens; NCI-H2009 (Lung), 72 h", "how_it_was_run": "as §1"}},
  "note": "pIC50: −log10 of the molar value.",
  "data": [
    {"smiles": "C#C[C@]1(CO)O[C@@H](n2cnc3c(=O)[nH]c(N)nc32)C[C@@H]1O", "note": "[compound 13]", "values": [
      {"measurement": "pIC50", "setting": "NCI-N87", "value": 5.44},
      {"measurement": "pIC50", "setting": "COV434", "value": 5.36},
      {"measurement": "pIC50", "setting": "DLD-1", "value": "< 5.00"},
      {"measurement": "pIC50", "setting": "A2058", "value": "< 5.00"},
      {"measurement": "pIC50", "setting": "RKO", "value": 5.35},
      {"measurement": "pIC50", "setting": "NCI-H2110", "value": 5.47},
      {"measurement": "pIC50", "setting": "T98G", "value": "< 5.00"},
      {"measurement": "pIC50", "setting": "PC-9", "value": "< 5.00"},
      {"measurement": "pIC50", "setting": "P31/FUJ", "value": 6.40},
      {"measurement": "pIC50", "setting": "Ishikawa", "value": 5.22},
      {"measurement": "pIC50", "setting": "NCI-H1703", "value": 5.04},
      {"measurement": "pIC50", "setting": "HT-1080", "value": 5.15},
      {"measurement": "pIC50", "setting": "PC3", "value": 5.40},
      {"measurement": "pIC50", "setting": "SCH", "value": 6.54},
      {"measurement": "pIC50", "setting": "HCC38", "value": 5.20},
      {"measurement": "pIC50", "setting": "RPMI 8226", "value": "< 5.00"},
      {"measurement": "pIC50", "setting": "A498", "value": "< 5.00"},
      {"measurement": "pIC50", "setting": "SK-N-FI", "value": "< 5.00"},
      {"measurement": "pIC50", "setting": "SK-LU-1", "value": "< 5.00"},
      {"measurement": "pIC50", "setting": "LP-1", "value": 5.50},
      {"measurement": "pIC50", "setting": "SK-N-MC", "value": 5.50},
      {"measurement": "pIC50", "setting": "BxPC-3", "value": 5.27},
      {"measurement": "pIC50", "setting": "Caki-2", "value": "< 5.00"},
      {"measurement": "pIC50", "setting": "Hutu 80", "value": 5.84},
      {"measurement": "pIC50", "setting": "MKN-1", "value": 5.06},
      {"measurement": "pIC50", "setting": "HL-60", "value": 5.95},
      {"measurement": "pIC50", "setting": "OCI-AML3", "value": 5.15},
      {"measurement": "pIC50", "setting": "EFM-19", "value": 5.58},
      {"measurement": "pIC50", "setting": "AsPC-1", "value": "< 5.00"},
      {"measurement": "pIC50", "setting": "MKN-45", "value": "< 5.00"},
      {"measurement": "pIC50", "setting": "HCT116", "value": 5.23},
      {"measurement": "pIC50", "setting": "A2780", "value": 5.34},
      {"measurement": "pIC50", "setting": "U-266", "value": "< 5.00"},
      {"measurement": "pIC50", "setting": "NCI-H2009", "value": 5.91}
    ]}
  ]
}
